Data as given in US11046649B2, “Compounds useful as inhibitors of indoleamine 2,3-dioxygenase and/or tryptophan dioxygenase” (Board of Regents, The University of Texas System, priority 2018, dated 2021).

Target: T1, IDO1 (Homo sapiens, UniProt P14902)
T1 construct: endogenous in cells; host or cells: HeLa cells (ATCC), IDO1 induced with 10 ng/mL IFNgamma
Experiment: IDO1 cell-based assay
Conditions: HeLa cells, 10 ng/mL IFNgamma, 24 hours with test compound; N-Formyl Kynurenine and L-tryptophan quantified by RFMS

T1 sequence (P14902 whole entry): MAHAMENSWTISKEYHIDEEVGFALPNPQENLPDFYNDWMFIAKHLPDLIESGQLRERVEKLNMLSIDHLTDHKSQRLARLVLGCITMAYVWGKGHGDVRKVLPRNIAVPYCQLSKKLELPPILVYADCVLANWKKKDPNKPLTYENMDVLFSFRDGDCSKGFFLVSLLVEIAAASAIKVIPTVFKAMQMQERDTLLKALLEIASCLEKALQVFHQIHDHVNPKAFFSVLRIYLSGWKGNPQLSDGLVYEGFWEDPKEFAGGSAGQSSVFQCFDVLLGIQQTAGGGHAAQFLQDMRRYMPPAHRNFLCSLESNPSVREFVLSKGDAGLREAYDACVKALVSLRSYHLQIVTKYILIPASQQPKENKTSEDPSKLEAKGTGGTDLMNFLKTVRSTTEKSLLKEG

SMILES	IC50 [nM]
CC(C(=O)Nc1cc(C2CC2)nn1C)[C@H]1[C@@H]2C[C@@H](n3cnc4cc(F)c(F)cc43)C[C@@H]21 (stereo partly drawn) [Example 48, N-(3-cyclopropyl-1-methyl-1H-pyrazol-5-yl)-2-((1R,3s,5S,6r)-3-(5,6-difluoro-1H-benzo[d]-imidazol-1-yl)bicyclo-[3.1.0]hexan-6-yl)-propanamide]	589
CC(C(=O)Nc1cnc2ccccn12)[C@H]1[C@@H]2C[C@@H](n3cnc4cc(F)c(F)cc43)C[C@@H]21 (stereo partly drawn) [Example 50, 2-((1R,3s,5S,6r)-3-(5,6-difluoro-1H-benzo[d]-imidazol-1-yl)bicyclo-[3.1.0]hexan-6-yl)-N-(imidazo[1,2-a]pyridin-3-yl)propanamide]	495
CC(C(=O)Nc1cc(C(F)(F)F)nn1C)[C@H]1[C@@H]2C[C@@H](n3cnc4cc(F)c(F)cc43)C[C@@H]21 (stereo partly drawn) [Example 55, 2-((1R,3s,5S,6r)-3-(5,6-difluoro-1H-benzo[d]-imidazol-1-yl)bicyclo-[3.1.0]hexan-6-yl)-N-(1-methyl-3-(trifluoromethyl)-1H-pyrazol-5-yl)-propanamide]	275
Cc1ncc(-c2ccc(NC(=O)[C@@H](C)[C@H]3[C@@H]4C[C@@H](n5cnc6cc(F)c(F)cc65)C[C@@H]43)cc2)cn1 [Example 66, (S)-2-((1R,3R,5S,6r)-3-(5,6-difluoro-1H-benzo[d]-imidazol-1-yl)bicyclo-[3.1.0]hexan-6-yl)-N-(4-(2-methylpyrimidin-5-yl)-phenyl)propanamide]	1140
Cc1ccc(-c2ccc(NC(=O)[C@@H](C)[C@H]3[C@@H]4C[C@@H](n5cnc6cc(F)c(F)cc65)C[C@@H]43)cc2)cn1 [Example 67, (S)-2-((1R,3R,5S,6r)-3-(5,6-difluoro-1H-benzo[d]-imidazol-1-yl)-bicyclo[3.1.0]hexan-6-yl)-N-(4-(6-methylpyridin-3-yl)phenyl)propanamide]	261
C[C@H](C(=O)Nc1ccc(-c2cnn(CC(=O)O)c2)cc1)[C@H]1[C@@H]2C[C@@H](n3cnc4cc(F)c(F)cc43)C[C@@H]21 [Example 69, 2-(4-(4-((S)-2-((1R,3R,5S,6r)-3-(5,6-difluoro-1H-benzo[d]-imidazol-1-yl)bicyclo-[3.1.0]hexan-6-yl)-propanamido)phenyl)-1H-pyrazol-1-yl)acetic acid]	5550
Cc1nnc(-c2ccc(NC(=O)[C@@H](C)[C@H]3[C@@H]4C[C@@H](n5cnc6cc(F)c(F)cc65)C[C@@H]43)cc2)s1 [Example 70, (S)-2-((1R,3R,5S,6r)-3-(5,6-difluoro-1H-benzo[d]-imidazol-1-yl)bicyclo-[3.1.0]hexan-6-yl)-N-(4-(5-methyl-1,3,4-thiadiazol-2-yl)phenyl)propanamide]	238
C[C@H](C(=O)Nc1ccc(-c2ccc(C#N)nc2)cc1)[C@H]1[C@@H]2C[C@@H](n3cnc4cc(F)c(F)cc43)C[C@@H]21 [Example 79, (S)-N-(4-(6-cyanopyridin-3-yl)phenyl)-2-((1R,3R,5S,6r)-3-(5,6-difluoro-1H-benzo[d]-imidazol-1-yl)bicyclo-[3.1.0]hexan-6-yl)-propanamide]	878
Cc1nnc(-c2ccc(NC(=O)[C@@H](C)[C@H]3[C@@H]4C[C@@H](n5cnc6cc(F)c(F)cc65)C[C@@H]43)cc2)o1 [Example 81, (S)-2-((1R,3R,5S,6r)-3-(5,6-difluoro-1H-benzo[d]-imidazol-1-yl)-bicyclo[3.1.0]hexan-6-yl)-N-(4-(5-methyl-1,3,4-oxadiazol-2-yl)phenyl)-propanamide]	710
C[C@H](C(=O)Nc1ccc(-c2ccc(C#N)cn2)cc1)[C@H]1[C@@H]2C[C@@H](n3cnc4cc(F)c(F)cc43)C[C@@H]21 [Example 83, (S)-N-(4-(5-cyanopyridin-2-yl)phenyl)-2-((1R,3R,5S,6r)-3-(5,6-difluoro-1H-benzo[d]-imidazol-1-yl)bicyclo-[3.1.0]hexan-6-yl)-propanamide]	845
C[C@H](C(=O)Nc1ccc(-c2ccc(F)cn2)cc1)[C@H]1[C@@H]2C[C@@H](n3cnc4cc(F)c(F)cc43)C[C@@H]21 [Example 85, (S)-2-((1R,3R,5S,6r)-3-(5,6-difluoro-1H-benzo[d]-imidazol-1-yl)bicyclo-[3.1.0]hexan-6-yl)-N-(4-(5-fluoropyridin-2-yl)phenyl)-propanamide]	1910
C[C@H](C(=O)Nc1ccc(-c2ccc(C(F)(F)F)nc2)cc1)[C@H]1[C@@H]2C[C@@H](n3cnc4cc(F)c(F)cc43)C[C@@H]21 [Example 86, (S)-2-((1R,3R,5S,6r)-3-(5,6-difluoro-1H-benzo[d]-imidazol-1-yl)bicyclo-[3.1.0]hexan-6-yl)-N-(4-(6-(trifluoromethyl)pyridin-3-yl)phenyl)propanamide]	568
C[C@H](C(=O)Nc1ccc(-c2cnc[nH]2)cc1)[C@H]1[C@@H]2C[C@@H](n3cnc4cc(F)c(F)cc43)C[C@@H]21 [Example 90, (S)-N-(4-(1H-imidazol-5-yl)phenyl)-2-((1R,3R,5S,6r)-3-(5,6-difluoro-1H-bcnzo[d]-imidazol-1-yl)bicyclo-[3.1.0]hexan-6-yl)-propanamide]	550
CC(C)n1cc(-c2ccc(NC(=O)[C@@H](C)[C@H]3[C@@H]4C[C@@H](n5cnc6cc(F)c(F)cc65)C[C@@H]43)cc2)cn1 [Example 91, (S)-2-((1R,3R,5S,6r)-3-(5,6-difluoro-1H-benzo[d]-imidazol-1-yl)bicyclo-[3.1.0]hexan-6-yl)-N-(4-(1-isopropyl-1H-pyrazol-4-yl)phenyl)propanamide]	504

Compounds with a lower IC50, results first:

IC50 [nM]	SMILES
170	C[C@H](C(=O)Nc1ccc(-c2cnn(C)c2)cc1)[C@H]1[C@@H]2C[C@@H](n3cnc4cc(F)c(F)cc43)C[C@@H]21 [Example 65, (S)-2-((1R,3R,5S,6r)-3-(5,6-difluoro-1H-benzo[d]-imidazol-1-yl)-bicyclo[3.1.0]hexan-6-yl)-N-(4-(1-methyl-1H-pyrazol-4-yl)phenyl)-propanamide]
156	CC(C(=O)Nc1nnc(C(F)(F)F)[nH]1)[C@H]1[C@@H]2C[C@@H](Oc3ccnc4ccc(F)cc34)C[C@@H]21 (stereo partly drawn) [Example 74, 2-((1R,3s,5S,6r)-3-((6-fluoroquinolin-4-yl)oxy)-bicyclo[3.1.0]hexan-6-yl)-N-(5-(trifluoromethyl)-4H-1,2,4-triazol-3-yl)-propanamide]
111	CC(C(=O)Nc1nc[nH]n1)[C@H]1[C@@H]2C[C@@H](Oc3ccnc4ccc(F)cc34)C[C@@H]21 (stereo partly drawn) [Example 77, 2-((1R,3s,5S,6r)-3-((6-fluoroquinolin-4-yl)oxy)-bicyclo[3.1.0]hexan-6-yl)-N-(1H-1,2,4-triazol-3-yl)-propanamide]
23.9	Cc1cc2ccc(NC(=O)C(C)[C@H]3[C@@H]4C[C@@H](n5cnc6cc(F)c(F)cc65)C[C@@H]43)cc2[nH]1 (stereo partly drawn) [Example 52, 2-((1R,3s,5S,6r)-3-(5,6-difluoro-1H-benzo[d]-imidazol-1-yl)bicyclo-[3.1.0]hexan-6-yl)-N-(2-methyl-1H-indol-6-yl)-propanamide]
14	CC(C(=O)Nc1cnn(C(F)F)c1)[C@H]1[C@@H]2C[C@@H](n3cnc4cc(F)c(F)cc43)C[C@@H]21 (stereo partly drawn) [Example 47, 2-((1R,3s,5S,6r)-3-(5,6-difluoro-1H-benzo[d]-imidazol-1-yl)bicyclo-[3.1.0]hexan-6-yl)-N-(1-(difluoromethyl)-1H-pyrazol-4-yl)propanamide]
10.5	Cc1cnc(NC(=O)C(C)[C@H]2[C@@H]3C[C@@H](n4cnc5cc(F)c(F)cc54)C[C@@H]32)cn1 (stereo partly drawn) [Example 53, 2-((1R,3s,5S,6r)-3-(5,6-difluoro-1H-benzo[d]-imidazol-1-yl)bicyclo-[3.1.0]hexan-6-yl)-N-(5-methylpyrazin-2-yl)-propanamide]
5.7	CC(C(=O)Nc1ccc(C2CC2)nc1)[C@H]1[C@@H]2C[C@@H](n3cnc4cc(F)c(F)cc43)C[C@@H]21 (stereo partly drawn) [Example 56, N-(6-cyclopropylpyridin-3-yl)-2-((1R,3s,5S,6r)-3-(5,6-difluoro-1H-benzo[d]-imidazol-1-yl)bicyclo-[3.1.0]hexan-6-yl)-propanamide]
4.7	CC(C(=O)Nc1ccc(C(F)(F)F)nc1)[C@H]1[C@@H]2C[C@@H](Oc3ccnc4ccc(F)cc34)C[C@@H]21 (stereo partly drawn) [Example 60]
4.6	CC(C(=O)Nc1ccc(C#N)nn1)[C@H]1[C@@H]2C[C@@H](Oc3ccnc4ccc(F)cc34)C[C@@H]21 (stereo partly drawn) [Example 76, N-(6-cyanopyridazin-3-yl)-2-((1R,3s,5S,6r)-3-((6-fluoroquinolin-4-yl)oxy)-bicyclo[3.1.0]hexan-6-yl)-propanamide]
3.7	CC(C(=O)Nc1ccc(C(F)(F)F)cn1)[C@H]1[C@@H]2C[C@@H](Oc3ccnc4ccc(F)cc34)C[C@@H]21 (stereo partly drawn) [Example 59, 2-((1R,3s,5S,6r)-3-((6-fluoroquinolin-4-yl)oxy)-bicyclo[3.1.0]hexan-6-yl)-N-(5-(trifluoromethyl)-pyridin-2-yl)propanamide]
3	CC(C(=O)Nc1cc2ccccn2n1)[C@H]1[C@@H]2C[C@@H](Oc3ccnc4ccc(F)cc34)C[C@@H]21 (stereo partly drawn) [Example 87, 2-((1R,3s,5S,6r)-3-((6-fluoroquinolin-4-yl)oxy)-bicyclo[3.1.0]hexan-6-yl)-N-(pyrazolo[1,5-a]pyridin-2-yl)propanamide]
2.4	CC(C(=O)Nc1cnc(Br)cn1)[C@H]1[C@@H]2C[C@@H](n3cnc4cc(F)c(F)cc43)C[C@@H]21 (stereo partly drawn) [Example 57, N-(5-bromopyrazin-2-yl)-2-((1R,3s,5S,6r)-3-(5,6-difluoro-1H-benzo[d]-imidazol-1-yl)bicyclo-[3.1.0]hexan-6-yl)-propanamide]
1.4	CC(C(=O)Nc1ccc(C2CC2)nc1)[C@H]1[C@@H]2C[C@@H](Oc3ccnc4ccc(F)cc34)C[C@@H]21 (stereo partly drawn) [Example 63, N-(6-cyclopropylpyridin-3-yl)-2-((1R,3s,5S,6r)-3-((6-fluoroquinolin-4-yl)oxy)-bicyclo[3.1.0]hexan-6-yl)propanamide]
